# Assay results reported in EP2114888B1, “TRICYCLIC COMPOUNDS AND THEIR USE AS GLUCOCORTICOID RECEPTOR MODULATORS” (priority 2007, dated 2008).
# Tests used:
# [1] = Oral absorption profile, time to Cmax in dogs; conditions: dog, in vivo
# [2] = test system: IL-6; assay: IL-1β-stimulated IL-6 production in A549 lung epithelial cells; assay type: cell-based, Human; conditions: Homo sapiens, A549
# Description: Human A549 lung epithelial cells (American Type Culture Collection, Rockville, MD) were cultured in Kaighn's F-12K medium with penicillin-streptomycin (10 U/mL) and 10% heat-inactivated fetal bovine serum (all from Invitrogen, Grand Island, NY). A549 cells were plated at a density of 30,000 cells/well in 96-well plates and incubated overnight at 37°C and with 5% CO2. The cells were serum-starved by replacing the growth medium with serum-free Kaighn's F-12K medium with penicillin-streptomycin (10 U/mL) and, again, incubating overnight at 37°C and with 5% CO2. On the third day, the medium was replaced with fresh serum-free medium and the cells were incubated with or without compound (vehicle was DMSO at 0.1 % maximum concentration) for approximately 1 hour and then stimulated with 1 ng/mL recombinant human IL-1β (R&D Systems, Minneapolis, MN) for 20 hours at 37°C and with 5% CO2. Cell supernatants were collected for determination of IL-6 levels using MSD (Meso Scale Discovery, Gaithersburg, MD) 96-well Single Spot plates as per the manufacturer's instructions. Plates were read with an MSD Sector Imager 6000. […] Percent inhibition for each compound concentration, relative to these controls, was calculated using Excel (Microsoft, Redmond, WA). IC50 values were generated using GraFit 5.0 data analysis software (Erithacus Software Ltd., Surrey, UK).
# [3] = test system: IFNγ; assay: Ex vivo LPS-stimulated human whole blood, IFNγ production; assay type: cell-based; conditions: mean values
# Description: (§1) Venous blood from human donors was collected as 10 ml aliquots in tubes containing sodium heparin (BD Vacutainer from Becton Dickinson and Company, Franklin Lakes, NY). Blood was added to sterile polystyrene round bottom 96-well tissue culture plates (Corning Costar) at 100 µl/well, omitting the outside wells. Media (RPMI Medium 1640 with L-glutamine, Invitrogen Corporation, Carlsbad, CA) was added to the blood in 90 µl aliquots for a total volume of 190 µl. Outside wells were filled with 200 µl of media. Blood was placed in a humidified 37°C incubator with 5% CO2 while compounds were prepared (nearly 60 minutes).
# (§2) Compounds were prepared from 10 mM stock solutions in dimethylsulfoxide (DMSO, Sigma-Aldrich). […] Final DMSO and ethanol concentrations in the assay were 0.1 % and 1.5%. The samples were gently triturated twice to mix and replaced in the incubator. LPS stock (E. coli serotype 0111:B4, Sigma-Aldrich), stored in aliquots of 100 µg/ml in RPMI at -20°C, was diluted 1/50 in RPMI to make a working stock solution. After 60 minutes of incubation, 10 µl of the prepared LPS working stock was added to the blood to a final concentration of 100 ng/ml, omitting wells to be used as negative control. The samples were again gently triturated and the plates incubated overnight for 22 hours. Following incubation, the blood was centrifuged at 1500 x g for 5 minutes and the plasma removed to either freeze at -20°C or assay for cytokine release.
# (§3) IL-1β, IFNγ,IL-6, and TNFα protein levels were measured using Meso Scale assay kits (Meso Scale Discovery, Gaithersburg, MD). Reagents were allowed to come to room temperature. Meso Scale plates were blocked with 30 µl of human plasma/serum assay diluent with gentle shaking for 60 minutes at room temperature. Plates were washed 3x with wash buffer (PBS, Invitrogen Corporation, with 0.05% Tween-20, Sigma-Aldrich). Calibrators for standard curves were prepared in human plasma/serum assay diluent as a 1/5 serial dilution to achieve final concentrations ranging from 50000 pg/ml to 3.2 pg/ml. Samples and calibrators were added at 20 µl/well, then incubated at room temperature with gentle shaking for 90 minutes. Plates were again washed 3 times with wash buffer. Detection antibody was diluted in human plasma/serum antibody diluent to 1 µg/ml and added to the plate at 20 µl/well. Plates were incubated as before for 60 minutes and washed again. Read Buffer T (4x) was diluted 1:1 with mqH2O to 2 times concentration and 150 µl added to each well. Plates were analyzed on the SECTOR Imager 6000 (Meso Scale Discovery) to generate raw signal values.
# (§4) Individual values were compared to positive and negative controls (vehicle treated blood with LPS and vehicle treated blood without LPS, respectively) to generate % inhibition. Triplicate values were averaged for each donor. The values for two donors were averaged (only one donor was used for IL-1β) and graphed using 4-parameter fit curves in the GraFit 5.0.11 application.
# [4] = test system: TNFα; assay: Ex vivo LPS-stimulated human whole blood, TNFα production; assay type: cell-based; conditions: mean values
# Description: as §1, §2, §3, §4
# [5] = Cortical bone histomorphometry to determine bone formation rate (BFR); assay type: in vivo, mice
# Description: Calcein incorporates into the bone mineral and allows measurement of bone formation rate. Calcein was dissolved in 2% sodium bicarbonate. During the tissue harvest, the left tibiae were excised and cleaned for cortical histomorphometry measurements. After all skin and muscle were removed, tibiae were placed in 70% ethanol (4°C) in the dark for a minimum of 24 hours.
# Ground transverse sections were used for histomorphometric analysis of cortical bone. Bones were sectioned using a low-speed saw (Isomet, Buehler, Lake Bluff, IL) equipped with a diamond wafer blade. The end of each tibia was removed proximal to tibia-fibula synostosis and a […] cross-section was cut. Using a roughened glass plate and a cork, sections were ground to […] until transparent and all labels were distinguishable under a fluorescent microscope. […] Using the Osteomeasure Bone Analysis Program (Osteometrics, Inc., Decatur, Georgia), bone formation rate was calculated by tracing the 1^s1 and 3rd fluorescent labels and the inner and outer perimeter of the bone. Bone formation rate was calculated by the following equation: (Inter-label width/Label interval) * (Labeled perimeter/Bone perimeter). At least five samples were measured from each treatment group in each study.
# [6] = test system: house dust mite-induced BAL inflammatory cell influx; assay: House dust mite model of asthma; assay type: in vivo, Mice; conditions: p.o., b.i.d., BAL fluid
# [7] = mouse, in vivo
# Description: Blood samples were obtained after three weeks of dosing for a steady-state pharmacokinetic (PK) analysis. To assess compound effects on LPS-induced TNFα, all mice received an intraperitoneal injection of LPS (Salmonella typhosa, L-7895; Sigma-Aldrich, St. Louis,) 2.5 hr after the last dose on day 28. Mice were sacrificed 90 minutes after LPS administration. Serum samples were quantified for osteocalcin and TNFα using the multiplex assays (Linco Research, Inc, St. Charles, MO; Luminex 100, Austin, TX). Samples were diluted 1:20 and the assay was run according to manufacturer's instructions. The osteocalcin standard was purchased separately (Biomedical Technologies Inc., Stoughton, MA). Mice were fasted for 4 hours before serum was collected for TNFα, and osteocalcin levels. For each experiment, outliers were detected by calculating the number of standard deviations from the mean of the group. If the value being examined was more than 2.5 standard deviations from the mean, it was excluded from the rest of the calculations.
# Due to blood volume sampling limitations in mice, AUC(0-4 hr) values were used to make pharmacodynamic comparisons.
# [8] = in vivo; conditions: rat, po
compound,measurement,setting,value
"Cc1ncccc1NC(=O)c1ccc2c(c1)CC[C@@H]1C[C@@](O)(C(F)(F)F)CC[C@@]21Cc1ccccc1 [Example 1, (4βS,7R,8αR)-4β-benzyl-7-hydroxy-N-(2-methylpyridin-3-yl)-7-(trifluoromethyl)-4β,5,6,7,8,8α,9,10-octahydrophenanthrene-2-carboxamide]",Tmax,[1],1.5 h
same,inhibition,[2],86.1%
same,inhibition at 0.000457247 µM,[3]; 0.457247 nM,16.9%
same,inhibition at 0.00137174 µM,[3]; 1.371742 nM,19.8%
same,inhibition at 0.00411523 µM,[3]; 4.115226 nM,-3.18%
same,inhibition at 0.0123457 µM,[3]; 12.34568 nM,26.7%
same,inhibition at 0.037037 µM,[3]; 37.03704 nM,51%
same,inhibition at 0.111111 µM,[3]; 111.1111 nM,60.6%
same,inhibition at 0.333333 µM,[3]; 333.3333 nM,73.5%
same,inhibition at 1 µM,[3]; 1000 nM,78.7%
same,inhibition at 0.000457247 µM,[4]; 0.457247 nM,8.96%
same,inhibition at 0.00137174 µM,[4]; 1.371742 nM,7.87%
same,inhibition at 0.00411523 µM,[4]; 4.115226 nM,-1.31%
same,inhibition at 0.0123457 µM,[4]; 12.34568 nM,9.42%
same,inhibition at 0.037037 µM,[4]; 37.03704 nM,18.7%
same,inhibition at 0.111111 µM,[4]; 111.1111 nM,27.4%
same,inhibition at 0.333333 µM,[4]; 333.3333 nM,36%
same,inhibition at 1 µM,[4]; 1000 nM,38.1%
same,Cortical bone formation rate (BFR) EAUC50,[5]; data set 2,0.35
same,Cortical bone formation rate (BFR) EAUC80,[5]; data set 2,1.76
same,Cortical bone formation rate (BFR) EAUC50 (AUC 0-4 hr),[5]; mice,270 ng·h/mL
same,Cortical bone formation rate (BFR) EAUC80 (AUC 0-4 hr),[5]; mice,1550 ng·h/mL
same,Eosinophils (% inhibition),[6]; 0.1 mg/kg,42%
same,Lymphocytes (% inhibition),[6]; 0.1 mg/kg,34%
same,Neutrophils (% inhibition),[6]; 0.1 mg/kg,29%
same,T-cells (% inhibition),[6]; 0.1 mg/kg,39%
same,Total cells (% inhibition),[6]; 0.1 mg/kg,22%
same,Eosinophils (% inhibition),[6]; 1 mg/kg,97%
same,Lymphocytes (% inhibition),[6]; 1 mg/kg,94%
same,Neutrophils (% inhibition),[6]; 1 mg/kg,97%
same,T-cells (% inhibition),[6]; 1 mg/kg,88%
same,Total cells (% inhibition),[6]; 1 mg/kg,72%
same,Eosinophils (% inhibition),[6]; 10 mg/kg,99%
same,Lymphocytes (% inhibition),[6]; 10 mg/kg,97%
same,Neutrophils (% inhibition),[6]; 10 mg/kg,100%
same,T-cells (% inhibition),[6]; 10 mg/kg,96%
same,Total cells (% inhibition),[6]; 10 mg/kg,83%
same,AUC(0-4 hr) values as share of the AUC(0-24 hr) values,[7],more than 95%
same,AUC,[8],460 ng·h/mL
